# Measurements taken from patent US5294724A, “4-hydroxytetrahydropyran-2-ones and the corresponding dihydroxycarboxylic acid derivatives, salts and esters and a process for their preparation” (priority 1989, dated 1994).
# Legend:
# HEP G2 cells = experiment: Inhibition of cholesterol biosynthesis in cell cultures (HEP G2 cells), incorporation of 14C-sodium acetate in cholesterol; type: cell-based; settings: for IC50: Homo sapiens, HepG2, sodium salts, test compounds corrected by deviation of mevinolin sodium from its mean value, read-out: IC50 (concentration necessary for a 50% inhibition); for Relative potency in %: mevinolin sodium = 100, from IC50
# Description: 2) Inhibition of cholesterol biosynthesis in cell cultures (EEP G2 cells)
# Determination of the inhibition of the incorporation of ^14 C-sodium acetate in cholesterol
# Monolayers of HEP G2 cells in lipoprotein-free medium were preincubated with various concentrations of the sodium salts of the dihydroxycarboxylic acids of the formula II for 1 hour. After adding ^14 C-labeled sodium acetate, the incubation was continued for 3 hours. Tritium-labeled cholesterol was added as an internal standard and an aliquot of the cells was subjected to alkaline hydrolysis. The lipids were extracted using chloroform/methanol 2: 1. After adding carrier cholesterol, the lipid mixture was preparatively separated on TLC plates using chloroform/acetone 9: 1. The cholesterol zone was made visible by staining with iodine vapor, additionally detected using a TLC radio scanner and then scraped off. The amount of ^14 C-cholesterol formed was determined scintigraphically and related to mg of cell protein. The same procedure was carried out with cells from the Bame culture without preincubation with a test compound (so-called "solvent control"). The potency of the test compounds was determined by comparison of the biosynthesized ^14 C-cholesterol in test runs and in "solvent control".
# HMG-CoA reductase = biological target: T1, HMG-CoA reductase (Rattus norvegicus, UniProt P51639); experiment: Inhibition of HMG-CoA reductase activity in solubilized enzyme preparations from rat liver microsomes; type: biochemical; settings: sodium salts of the dihydroxycarboxylic acids; mean of 3 parallel samples; read-out: IC50 (molar concentration necessary for a 50% inhibition)
# T1 construct: solubilized enzyme preparations from liver microsomes of rats; from tissue; host or cells: rat liver microsomes (cholestyramine-induced rats), solubilized
# T1 sequence (P51639 1-887): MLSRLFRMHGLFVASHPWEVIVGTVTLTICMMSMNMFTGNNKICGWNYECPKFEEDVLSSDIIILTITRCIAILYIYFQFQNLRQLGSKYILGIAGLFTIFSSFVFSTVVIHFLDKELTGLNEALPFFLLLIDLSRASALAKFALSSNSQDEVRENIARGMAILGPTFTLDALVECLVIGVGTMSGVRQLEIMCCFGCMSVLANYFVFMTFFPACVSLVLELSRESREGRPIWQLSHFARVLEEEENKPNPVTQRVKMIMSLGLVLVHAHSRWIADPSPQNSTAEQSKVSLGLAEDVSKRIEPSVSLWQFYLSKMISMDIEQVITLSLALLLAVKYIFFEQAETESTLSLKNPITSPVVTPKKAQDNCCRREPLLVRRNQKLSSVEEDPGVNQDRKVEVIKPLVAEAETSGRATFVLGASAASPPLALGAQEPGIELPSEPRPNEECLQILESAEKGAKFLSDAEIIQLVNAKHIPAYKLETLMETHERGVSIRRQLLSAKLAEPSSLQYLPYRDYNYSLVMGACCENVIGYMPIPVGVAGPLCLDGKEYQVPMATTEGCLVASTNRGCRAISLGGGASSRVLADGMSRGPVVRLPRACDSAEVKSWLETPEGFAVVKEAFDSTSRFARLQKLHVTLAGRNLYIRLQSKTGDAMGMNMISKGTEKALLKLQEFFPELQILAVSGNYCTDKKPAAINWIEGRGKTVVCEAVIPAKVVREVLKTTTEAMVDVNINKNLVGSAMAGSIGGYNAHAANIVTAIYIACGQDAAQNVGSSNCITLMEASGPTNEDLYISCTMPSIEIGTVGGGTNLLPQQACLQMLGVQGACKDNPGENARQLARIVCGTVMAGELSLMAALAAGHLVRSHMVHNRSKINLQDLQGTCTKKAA
# Description: 1) Inhibition of HKG-CoA reductase activity in solubilized enzyme preparations from rat liver microsomes
# HMG-CoA reductase activity was measured on solubilized enzyme preparations from liver microsomes of rats which had been induced by conversion into the day/night rhythm using cholestyramine (®Cuemid). (S,R)^14 C-HMG-CoA was used as a substrate, and the concentration of NADPH was maintained during the incubation by a regenerating system. The separation of ^14 C-mevalonate from substrate and other products (for example ^14 C-HMG) was carried out by column elution, the elution profile of each individual sample being determined. The regular addition of ^3 H-mevalonate was avoided as the determination gives the data relative to the inhibitory action. The enzyme-free control, the enzyme-containing normal mixture (=100%) and those containing preparation additives were in each case treated together in one series of experiments. The sodium salts of the dihydroxycarboxylic acids of the formula II were always employed as the preparation in this test. Each individual value was formed as the mean value of 3 parallel samples. The significance of the mean value differences between preparation-free and preparation-containing samples was evaluated by the t-test.
# [1] = system: microsomal lipid peroxidation; experiment: Inhibition of microsomal lipid peroxidation (in vitro); type: biochemical
# Description: 5) Inhibition of microsomal lipid peroxidation (in vitro)
# The inhibition of lipid peroxidation was measured under the experimental conditions described by H. Wafers and H. Sies, Eur. J. Biochem. 174, 353-357 (1988). The microsomes were obtained according to the literature cited therein. IC50 denotes the concentration of the test compound in moles per liter which causes a 50% inhibition of lipid peroxidation.
# LDL = experiment: Inhibition of Cu2+-catalyzed LDL oxidation in vitro; type: biochemical, porcine; settings: 5 μM Cu2+, 2 hours at 37° C.
# Description: 6) Inhibition of Cu^2+ -catalyzed LDL oxidation in vitro LDL was isolated from porcine plasma which contained EDTA (1 mg/ml) by ultracentrifugation in salt solutions of NaCl/NaBr between the densities 1.019 and 1.063 g/ml (cf. R. J. Havel et al., J. Clin. Invest. 43, 1345 (1955)). LDL was then dialyzed against phosphate-buffered saline (160 mM NaCl, 10 mM NaH2 PO4), pH 7.4 and stored under nitrogen at 4° C. Before the oxidation process, the LDL fractions were diluted to a final protein concentration of 0.1 mg/ml using phosphate-buffered saline and 2.5 ml aliquot parts were pre-incubated under nitrogen with the test compounds (25 μl of ethanolic solution) for 1 hour at 37° C. (cf. McLean et al., Biochemistry 1989, 28, 321). For the Cu^2+ -catalyzed oxidation of LDL, 12.5 μl of a 1 mM CuSO4 solution were added to each sample, a 5 μM Cu^2+ concentration resulting. The incubation was carried out for 2 hours at 37° C. and in an air atmosphere. The fluorescence intensity was measured at 430 nm (excitation wavelength 365 nm) (cf. Steinbrecher, U. P., J. Biol. Chem. 1987, 262, 3603). […] In addition, the inhibition using a 10^-5 N concentration of the test compound is indicated in %.
# serum lipoproteins = experiment: Action on serum lipoproteins and other metabolic parameters of male rats in the subchronic test; type: in vivo; settings: rat; for Body weight, % changes in the mean value relative to starting / Food consumption, % changes in the mean value relative to control / Glycerol VLDL, % change compared to control / Liver weight, % changes in the mean value relative to control / Protein LDL, % change compared to control / Protein VLDL, % change compared to control / Total cholesterol HDL, % change compared to control / Total cholesterol LDL, % change compared to control / Total cholesterol VLDL, % change compared to control: 7 administrations; for Cholesterol HDL/LDL: control standardization to 1.00
# Description: 3) Action on serum lipoproteins and other metabolic parameters of male rats in the subchronic test
# Groups of male rats of the strain HOE: WISKf (SPF 71) having a starting weight of above 180 g received the test preparations daily in the morning (sodium salts of the dihydroxycarboxylic acids of the formula II) in polyethylene glycol 400 by stomach tube; the respective control group received only the vehicle. The last (7th) administration was carried out 24 hours before taking blood and sacrificing. There was free access to food and water during the experiment. 24 hours before taking blood, which wall carried out retroorbitally under slight ether anesthesia before and after the treatment period (i.e. on the 1st and 8th day), the food was withdrawn. Total cholesterol was determined in the serum of each individual animal [CHODPAP high performance method of Boehringer Mannheim], and, as a measure of the triglycerides, total glycerol was also determined analytically from the serum pool of all the animals of one group [GPO-PAP high performance method, Boehringer Mannheim].
# Immediately after taking blood, the animals were sacrificed by dislocation of the spine, and the relative liver weight, the change in body weight and the food consumption were determined.
# For the analysis of the serum lipoproteins, the serum of all the rats of one group was pooled. The serum lipoproteins were separated using the preparative ultracentrifuge.
# The following conditions were used for the separation of the fractions VLDL, LDL and HDL:
# The determination of the protein was carried out by the method of Lowry et al. [LOWRY O. H., ROSEBOROUGH, N.J., PARR, A. L. and RANDELL, R. J.: J. Biol. Chem. 193, 265 (1951)].
# [2] = 100 mg/kg daily by stomach tube
compound,measurement,setting,value
O=C(O)C[C@H](O)C[C@H](O)COc1c(-c2ccc(F)cc2)cc(Sc2ccc(F)cc2)cc1C1CC1 [Example 2],IC50,HEP G2 cells,2.2 nM
same,Relative potency in %,HEP G2 cells,2273%
same,IC50,HMG-CoA reductase,2 nM
same,Inhibition at 10^-5 mol/l,[1],< 10%
CC(C)c1cc(Sc2ccccc2)cc(-c2ccc(F)cc2)c1OC[C@@H](O)C[C@@H](O)CC(=O)O [Example 4],IC50,HEP G2 cells,8 nM
same,Relative potency in %,HEP G2 cells,625%
same,IC50,HMG-CoA reductase,8 nM
"CC(C)c1cc(Sc2ccc(F)cc2)cc(-c2ccc(F)cc2)c1OC[C@@H]1C[C@@H](O)CC(=O)O1 [Example 10, 4(R)-Hydroxy-6(S)-[(2-p-fluorophenyl-4-p-fluorophenylthio-6-isopropyl)phenoxymethyl]-3,4,5,6-tetrahydro-2H-pyran-2-one]",IC50,"LDL; fluorescence 430 nm, read-out: IC50 (50% inhibition of LDL oxidation)",> 10000 nM
same,Inhibition at 10^-5 M,LDL; 10^-5 M,23%
"CC(C)c1cc(SC(C)(C)Sc2cc(-c3ccc(F)cc3)c(OC[C@@H](O)C[C@@H](O)CC(=O)O)c(C(C)C)c2)cc(-c2ccc(F)cc2)c1O [Example 6, Sodium 3(R),5(S)-dihydroxy-6-(2-isopropyl-4-[(3-isopropyl-4-sodio-oxy-5-p-fluorophenyl-l-phenylthio)-2-propyl-2-thio]-6-p-fluorophenylphenoxy)hexanoate]","Body weight, % changes in the mean value relative to starting",serum lipoproteins; 30 mg/kg daily by stomach tube,+5%
same,"Food consumption, % changes in the mean value relative to control",serum lipoproteins; 30 mg/kg daily by stomach tube,-1%
same,"Glycerol VLDL, % change compared to control",serum lipoproteins; 30 mg/kg daily by stomach tube,+8%
same,"Liver weight, % changes in the mean value relative to control",serum lipoproteins; 30 mg/kg daily by stomach tube,+3%
same,"Protein LDL, % change compared to control",serum lipoproteins; 30 mg/kg daily by stomach tube,-24%
same,"Protein VLDL, % change compared to control",serum lipoproteins; 30 mg/kg daily by stomach tube,-4%
same,"Total cholesterol HDL, % change compared to control",serum lipoproteins; 30 mg/kg daily by stomach tube,+13%
same,"Total cholesterol LDL, % change compared to control",serum lipoproteins; 30 mg/kg daily by stomach tube,-26%
same,"Total cholesterol VLDL, % change compared to control",serum lipoproteins; 30 mg/kg daily by stomach tube,+12%
same,Cholesterol HDL/LDL,serum lipoproteins; 30 mg/kg daily,1.27
same,"Body weight, % changes in the mean value relative to starting",serum lipoproteins; [2],+5%
same,"Food consumption, % changes in the mean value relative to control",serum lipoproteins; [2],-1%
same,"Glycerol VLDL, % change compared to control",serum lipoproteins; [2],-8%
same,"Liver weight, % changes in the mean value relative to control",serum lipoproteins; [2],+1%
same,"Protein LDL, % change compared to control",serum lipoproteins; [2],+3%
same,"Protein VLDL, % change compared to control",serum lipoproteins; [2],-2%
same,"Total cholesterol HDL, % change compared to control",serum lipoproteins; [2],-3%
same,"Total cholesterol LDL, % change compared to control",serum lipoproteins; [2],-16%
same,"Total cholesterol VLDL, % change compared to control",serum lipoproteins; [2],+13%
same,Cholesterol HDL/LDL,serum lipoproteins; 100 mg/kg daily,1.15
same,IC50,HEP G2 cells,1700 nM
same,Relative potency in %,HEP G2 cells,3%
same,IC50,HMG-CoA reductase,3 nM
same,Inhibition at 10^-5 mol/l,[1],98%
same,IC50,"[1]; microsomes, read-out: IC50 (50% inhibition of lipid peroxidation)",2700 nM
Cc1cc(-c2cc(Sc3ccc(F)cc3)cc(C(C)C)c2OC[C@@H](O)C[C@@H](O)CC(=O)O)ccc1F [Example 3],IC50,HEP G2 cells,3.8 nM
same,Relative potency in %,HEP G2 cells,1316%
same,IC50,HMG-CoA reductase,4 nM
"CC(C)Sc1cc(-c2ccc(F)cc2)c(OC[C@@H](O)C[C@@H](O)CC(=O)O)c(C(C)C)c1 [Example 5, Sodium 3(R),S(S)-dihydroxy-6-[(2-p-fluorophenyl-4-isopropylthio-6-isopropyl)phenoxy]hexanoate]",IC50,HEP G2 cells,9.2 nM
same,Relative potency in %,HEP G2 cells,543%
same,IC50,HMG-CoA reductase,8 nM
same,Inhibition at 10^-5 mol/l,[1],0%
"CC(C)c1cc(SC(C)(C)Sc2cc(-c3ccc(F)cc3)c(OC[C@@H](O)C[C@@H](O)CC(=O)O)c(C(C)C)c2)cc(-c2ccc(F)cc2)c1OC[C@@H](O)C[C@@H](O)CC(=O)O [Example 7, 4,4-(Isopropylidenedithio)-bis-<{1-[(2S,4R)-dihydroxy-5-sodiocarboxy]pentoxy-2-isopropyl-6-p-fluorophenyl}benzene>]","Body weight, % changes in the mean value relative to starting",serum lipoproteins; [2],+5%
same,"Glycerol VLDL, % change compared to control",serum lipoproteins; [2],-3%
same,"Liver weight, % changes in the mean value relative to control",serum lipoproteins; [2],-1%
same,"Protein LDL, % change compared to control",serum lipoproteins; [2],-8%
same,"Protein VLDL, % change compared to control",serum lipoproteins; [2],-15%
same,"Total cholesterol HDL, % change compared to control",serum lipoproteins; [2],+9%
same,"Total cholesterol LDL, % change compared to control",serum lipoproteins; [2],-52%
same,"Total cholesterol VLDL, % change compared to control",serum lipoproteins; [2],-23%
same,Cholesterol HDL/LDL,serum lipoproteins; 100 mg/kg daily,2.25
same,IC50,HEP G2 cells,920 nM
same,Relative potency in %,HEP G2 cells,5%
same,IC50,HMG-CoA reductase,1 nM
same,Inhibition at 10^-5 mol/l,[1],< 10%
